In patent publication US20090253745A1, “MODULATORS OF OCULAR OXIDATIVE STRESS” (SIRION THERAPEUTICS, INC., priority 2007, published 2009):

Columns and labels:
in vitro = in vitro ADME; settings: mouse; 1 mM TAPP1, anterior segments of twelve eyeglobes in 0.5 ml MEM, 37° C.; read-out: half-life of hydrolysis
Method: FIG. 2. In vitro hydrolysis of TAPP1 by anterior segments from mouse eyeglobes. Anterior segments were isolated from twelve wild-type mouse eyeglobes, and cultured in 0.5 ml of MEM media. TAPP1 was added to the culture to a final concentration of 1 mM, and the sample was incubated at 37° C. At 0, 1, 5, 15, 30, 60 and 120 min following incubation, 20 μl aliquot samples were removed from the culture. The aliquots were mixed with equal volume of ice-cold methanol, and incubated on ice for 10 min, followed by centrifugation at 25,000 g to precipitate proteins. TAPP1 content in the supernatant was analyzed by a capillary reverse phase C18 column. The relative quantity of TAPP1 was determined by integration of chromatographic peak area. […] Release of the two products of TAPP1 hydrolysis (designated HP-1 and HP-2) was […] to the rate of TAPP1 hydrolysis (not shown). Corneal esterases may be largely responsible for the hydrolysis of TAPP1.
(§1) The compound TAPP1 (C18H24N4O3), MW 344.18, is formulated as described above. A 40 mM solution of TAPP1 is used. […] TAPP content of the supernatant is analyzed by a capillary reverse phase C18 column. […] The relative quantity of the TAPP is determined by area integration of the TAPP elution peak. […] Isoprostanes are measured with a commercially available in vitro assay kit.

[1] = test system: explants of wild-type mouse retina; assay: In vitro model of light-mediated oxidative stress: isoprostane release from retina explants; assay type: cell-based; settings: intense light (~10,000 Lux), 2-day incubation
Source text: FIG. 6. Development of an in vitro model of light-mediated oxidative stress. An in vitro model of oxidative stress was developed to determine the therapeutic potency of the TAPP compositions. In this model, explants of wild-type mouse retina are placed into culture media and exposed to intense white light over a 2 day period. Control samples were exposed to subdued lighting (˜100 Lux). The formation of oxidized arachadonic acid (isoprostanes), which is a direct measure of oxidative stress in biological samples, was monitored with a commercially available assay kit (Cayman Chemical Company, Ann Arbor, Mich.).
FIG. 7. TAPP1 reduces light-mediated oxidative stress. The aforementioned in vitro assay of light-mediated oxidative stress was employed to determine the therapeutic potency of TAPP1. In this experiment, isoprostane released from retina explants was measured in the absence and presence of TAPP1 in subdued lighting (˜100 Lux) and during intense light exposure (˜10,000 Lux). […]
as §1, with “above.” for “above. A 40 mM solution of TAPP1 is used.”

CC1(C)CC(OC(=O)c2cc(-c3ccncc3)n[nH]2)CC(C)(C)N1[O] [TAPP1, 1-oxyl-2,2,6,6-tetramethylpiperidin-4-yl 3-(pyridin-4-yl)-1H-pyrazole-5-carboxylate]
half-life (in vitro): ~10 min | isoprostane release from retina explants [1]: significantly reduced
